Data taken from patent US20220387457A1 (Qlaris Bio, Inc., priority 2020, published 2022).

Assays:
[1] = test system: hound dogs (systemic blood pressure); assay: Systemic blood pressure in hound dogs during 61-day topical CKLP1; type: in vivo, hound dog; conditions: 10 mM CKLP1 topical once daily
Protocol: To evaluate the effect of IOP lowering long-term, hound dogs (n=5) were treated with 10 mM CKLP1 in one eye and vehicle (PBS) in the contralateral eye once daily for 61 consecutive days. […] On average, IOP was reduced by 18.9±1.3% (reduction of 3.0±0.5 mmHg; p<0.001) in all five hound dogs over the entire treatment period. Additionally, no significant change in systolic (baseline, 141.0±6.7; treatment, 138.9±9.5; p=0.56) or diastolic (baseline, 80.1±8.9; treatment, 78.1±5.9; p=0.76) blood pressure was observed during the treatment period (FIG. 7B). Hound dogs were also evaluated for eye redness, swelling of the eye or eyelids, unusual discharge from eye and overall food intake.
For the extended dose study, baseline IOPs were measured three times daily for 5 consecutive days. The average of the three measurements was recorded as the daily IOP and averaged over the 5 days for the final pre-treatment value. Following baseline IOP measurements, dogs (n=5) were treated with 10 mM CKLP1 in one eye, while the contralateral eye received vehicle (PBS). IOP was measured at least three times every week at times corresponding to 1, 4, and 23 hours post treatment. Blood pressure was measured three times each week at the 4 hour post treatment time point.

[2] = test system: hound dogs; assay: Histology, blood chemistry and tolerability after bilateral topical CKLP1 in hound dogs
Text: To evaluate local and systemic side effects of bilateral topical administration of CKLP1 to the eyes, additional tissue samples were harvested for histological examination. Tissues collected and fixed during necropsy were processed into paraffin blocks, sectioned, and stained with hematoxylin and eosin.

CC1(C)Oc2ccc(C#N)cc2[C@@H](N2CCCC2=O)[C@@H]1OP(=O)(O)O [CKLP1]
diastolic blood pressure during treatment ([1]; baseline 80.1±8.9, p=0.76): 78.1±5.9 mmHg | systolic blood pressure during treatment ([1]; baseline 141.0±6.7, p=0.56): 138.9±9.5 mmHg | overall tolerability, ocular or systemic toxicity ([2]; bilateral eye treatment with CKLP1): well tolerated and did not result in any observed ocular or systemic toxicity | histology of 40 different tissues ([2]; bilateral topical 10 mM CKLP1, 12-13 days): none of the analyzed tissues showed any significant pathology | blood chemistry ([2]; bilateral topical 10 mM CKLP1, except albumin, slightly lower in treated and control): within normal range
